# Results published in EP1522308A1, “Use of chlorophyll or analogues for the prevention of cytotoxic effects of dietary heme on the intestinal mucosa” (Stichting Top-Instituut Voedselwetenschappen, priority 2003, dated 2005).
# Columns and labels:
# colonic epithelial cells = assay: In vivo colonic epithelial cell proliferation, [methyl-3H]thymidine incorporation into DNA; parameters: species or system rats
# Description: About eight-week-old, outbred male Wistar rats (Harlan Horst/WU, SPF) were housed individually in metabolic cages in a room with controlled temperature (± 20°C), relative humidity (50-60%) and a light/dark cycle (6 AM to 6 PM). Animals were acclimatized to housing conditions for 5 days before start of the experiment.
# In the first study we tested whether spinach prevents the effect of dietary heme. […] During two weeks, four groups of eight rats were fed purified diets. The control group consumed a diet which contained per kg, 200 g casein, 532 g dextrose, 200 g fat (160 g palm fat and 40 g corn oil), 20 g cellulose and 20 mmol calcium phosphate (CaPO4·2H2O, Fluka Chemie Buchs, Switzerland). […]
# After the experimental feeding period of 14 days, we quantified the colon epithelial cell proliferation as DNA-replication, using [methyl-^3H]thymidine incorporation into DNA. […] These homogenates were analyzed for ^3H-thymidine incorporation and for total DNA content. […] A sample (0.5 ml) of the hydrolysate was dissolved in 15 ml Aqua Luma (Lumac-LSC BV., Groningen, The Netherlands) and counted with corrections for quenching on a Beckman LS-7500 liquid scintillation counter. DNA content was determined using the diphenylamine reaction with calf thymus DNA as standard (Sigma) [24].
# [1] = test system: human erythrocyte suspension; assay: Cytotoxicity of fecal water, potassium release from erythrocytes (erythrocyte bioassay); assay type: cell-based
# Description: Fecal water was prepared by reconstituting a small amount of freeze-dried feces with double-distilled water to 20 % dry weight. After homogenizing, samples were incubated for 1 hour in a shaking water bath at 37°C, with mixing every 15 min, followed by centrifugation for 20 min at 13.500 g. The supernatants were collected and centrifuged again at 14.000 g for 2 min. The osmolarity (Osmomat 030-D, Gonotec, Berlin, Germany) of the fecal waters was determined. If osmolarity differed from 300 mOsmol/L, another portion of freeze-dried feces was reconstituted with double-distilled water, adjusting the percentage dry weight to obtain fecal water with an osmolarity of 300 mOsmol/L. The fecal waters were stored at -20°C until further analysis.
# (§1) Cytotoxicity of fecal water was quantified by potassium release after incubation with a human erythrocyte suspension as described previously and validated earlier with intestinal epithelial cells. The potassium content of the erythrocytes was measured with an Inductive Coupled Plasma […] Emission Spectrophotometer (ICP-AES, Varian, Mulgrave, Australia) and the cytotoxicity of fecal water was calculated and expressed as a percentage of maximal lysis.
# colonocytes = assay: Quantification of epithelial (host) DNA in feces by real-time PCR for the β-globin gene; assay type: in vivo, rats
# Description: Food and demineralised drinking water were supplied ad libitum.
# Fecal host DNA content was quantified using DNA extraction and real-time PCR, using rat-specific probe and primers for the β-globin gene. In short, DNA was isolated from 20 mg freeze-dried feces using the QIAamp DNA stool mini kit (Westburg, Leusden, The Netherlands) following the recommendations of the manufacturer for human DNA analysis. […] The standard DNA used for the quantification of the DNA in the feces was isolated from rat spleen, using the Wizard Genomic DNA purification kit (Promega Corporation, Madison, WI, USA). The real-time PCR was performed using the ABI prism 7700 Sequence Detection system (PE Applied Biosystems, Nieuwerkerk a/d IJssel, The Netherlands). Universal Taqman Master Mix and Taqman Exogenous Internal positive Control (IPC) Reagent (Vic ™ probe) were purchased from Applied Biosystems and the Taqman probe containing a 5' FAM labeled fluorescent reporter dye (6-carboxyfluorosein) and a 3' TAMRA quencher dye (6-carboxytetramethylrhodamine) was purchased from Proligo (Paris, France). PCR primers were synthesized by Amersham Pharmacia Biotech Custom DNA Synthesis Service (Roosendaal, The Netherlands). For amplification of host DNA 5 µl of the purified DNA (100-500 ng) was used in a volume of 50 µl, containing 1x Master Mix, 200 nM forward primer (5'-[…]-3'), 200 nM reverse primer (5'-[…]-3'), 100 nM probe (5'-[…]-3'), 1x IPC mix and 1x IPC DNA. The PCR protocol consisted of 2 min 50°C, 10 min 95°C and 40 cycles of 15 sec 95°C and 1 min 62°C.
# colon mucosa = assay: Total DNA content of colon mucosa scrapings (diphenylamine reaction); assay type: in vivo, rats; settings: spinach study
# Excerpt: After the experimental feeding period of 14 days, we quantified the colon epithelial cell proliferation as DNA-replication, using [methyl-^3H]thymidine incorporation into DNA. We choose this biochemical method because it is the most rapid, specific and quantitative marker of cell replication in vivo. Moreover, we have shown earlier that DNA-replication highly correlates with faecal water cytotoxicity. This substantiates a cause-and-effect relationship that we want to address in the present study. Non-fasted rats were injected i.p. with [methyl-^3H]thymidine (specific activity 925 GBq / mmol; dose 3.7 MBq / kg body weight; Amersham International, Amersham, UK) in 154 mM NaCl. After 2 hours the rats were killed by CO2 inhalation. The colon was removed and opened longitudinally. Colonic contents were removed by rinsing with 154 mM KCl. […] These homogenates were analyzed for ^3H-thymidine incorporation and for total DNA content. […] A sample (0.5 ml) of the hydrolysate was dissolved in 15 ml Aqua Luma (Lumac-LSC BV., Groningen, The Netherlands) and counted with corrections for quenching on a Beckman LS-7500 liquid scintillation counter. DNA content was determined using the diphenylamine reaction with calf thymus DNA as standard (Sigma).
# [2] = test system: human erythrocyte suspension; assay: Cytotoxicity of size exclusion chromatography fractions of lipid extracts of pooled fecal water; assay type: cell-based; settings: chlorophyll study, heme group: high-molecular weight components eluting around 6 min (Figure 6B)
# Description: as §1
# Pooled fecal water from the different treatment groups was first purified, by adding 560 µl water and 2.5 ml diethylether (ether) to 100 µl fecal water, and after vigorous mixing, centrifugation at 1500 g for 5 minutes. The ether phase containing chlorophyll was discarded and the procedure was repeated 2 times. The remaining 660 µl sample was acidified with 60 µl HCl (final HCl concentration 1 M) and further extracted with chloroform / methanol as described earlier. The lipid-containing chloroform phase was obtained after centrifugation (10 min, 1500 g) and evaporated under nitrogen. […] The data was processed and analyzed using Shimadzu software. […] The cytotoxicity of these fractions was determined as described above, after resolubilising the samples in 50 mM NaOH and adjusting to neutral pH and 300 mOsm/L with 3-[N-morpholino]-propanesulfonic acid (MOPS).
Substance,"prevention of heme-induced epithelial hyperproliferation (colonic epithelial cells; chlorophyll study, added to heme diet, 1,2 mmol chlorophyll / kg diet, 14 days (Figure 3))","inhibition of heme-induced increase of cytotoxicity of the fecal water ([1]; chlorophyll study, supplemented to the heme diet, fecal water of rats (Figure 5))","effect on heme-induced reduction of host DNA in the feces (colonocytes; chlorophyll study, supplemented to the heme diet (Figure 4))","increase in rate of DNA-replication compared with the control group (colonic epithelial cells; spinach study, 0.5 mmol heme / kg diet, 14 days) [%]",decrease of DNA content of the mucosa compared with the other groups (colon mucosa; 0.5 mmol heme / kg diet) [%],"DNA content of the mucosa (colon mucosa; mean ± SEM, n=8 per group) [µg DNA / g scraping]","cytotoxicity of the fecal water compared with the control diet ([1]; chlorophyll study, 0.5 mmol heme / kg diet, fecal water of rats (Figure 5))","increase of cytotoxicity of fecal water compared with the control group ([1]; spinach study, fecal water of rats, 0.5 mmol heme / kg diet) [fold]","host DNA detected in the feces compared to the control diet (colonocytes; chlorophyll study, 0.5 mmol heme / kg diet, feces of days 11-14 (Figure 4))","exfoliation of colonocytes (rat DNA quantification from faeces) (colonocytes; summary of examples 1 and 2, dietary heme)",cytotoxicity of collected size exclusion chromatography fractions [2]
chlorophyll,completely prevented,completely,totally abolished,,,,,,,,
hemin [heme],,,,50,20,4207,increase,7,strong reduction,inhibited this exfoliation of colonocytes almost completely,very high
